Assay results: US7442717B2, “Substituted 2-aminoimidazoles, process for their preparation, their use as medicament or diagnostic aid” (Sanofi-Aventis Deutschland GmbH, priority 2003, dated 2008)
Counter-ions that a name gives are not always drawn.

Columns and labels:
NHE2 = NHE2 (Rattus norvegicus, UniProt P48763); conditions: read-out: IC50 for NHE2; literature value, J. Orlowski et al; cited from earlier work
adrenergic α2 receptor = conditions: literature, Ernsberger et al Eur. J. Pharmacol. 134, 1, 1987; cited from earlier work
imidazoline I1 receptor = conditions: literature, Ernsberger et al Eur. J. Pharmacol. 134, 1, 1987; cited from earlier work
rNHE3 = biological target: T1, rNHE3 (Rattus norvegicus, UniProt P26433); assay: Recovery of intracellular pH (pHi) after acidification, BCECF fluorescence, in fibroblasts (LAP 1 cells); assay type: cell-based; conditions: pH recovery in LAP 1 fibroblasts
T1 construct: expressed in transfected cells; host or cells: LAP 1 cells (fibroblasts)
T1 sequence (P26433 29-831): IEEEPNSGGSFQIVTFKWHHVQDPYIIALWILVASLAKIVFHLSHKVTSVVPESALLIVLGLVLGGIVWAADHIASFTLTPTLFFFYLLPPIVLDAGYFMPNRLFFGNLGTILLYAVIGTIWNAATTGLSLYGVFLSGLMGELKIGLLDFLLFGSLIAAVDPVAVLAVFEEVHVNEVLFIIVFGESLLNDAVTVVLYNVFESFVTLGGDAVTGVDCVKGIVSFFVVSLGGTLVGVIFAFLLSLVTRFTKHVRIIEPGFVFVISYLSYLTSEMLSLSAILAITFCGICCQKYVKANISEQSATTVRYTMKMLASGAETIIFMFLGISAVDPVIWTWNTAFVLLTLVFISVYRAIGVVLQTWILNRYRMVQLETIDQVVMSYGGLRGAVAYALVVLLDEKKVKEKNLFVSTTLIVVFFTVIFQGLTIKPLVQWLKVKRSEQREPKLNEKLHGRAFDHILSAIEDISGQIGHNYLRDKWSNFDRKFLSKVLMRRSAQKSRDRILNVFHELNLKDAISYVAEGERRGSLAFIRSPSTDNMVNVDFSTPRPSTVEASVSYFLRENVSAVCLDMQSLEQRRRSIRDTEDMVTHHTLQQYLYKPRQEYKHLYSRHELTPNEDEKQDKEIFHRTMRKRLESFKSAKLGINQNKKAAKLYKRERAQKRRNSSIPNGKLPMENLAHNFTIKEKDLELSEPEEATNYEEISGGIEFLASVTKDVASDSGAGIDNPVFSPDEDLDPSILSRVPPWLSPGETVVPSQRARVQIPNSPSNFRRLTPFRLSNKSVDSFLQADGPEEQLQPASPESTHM
Protocol: In this test, the recovery in the intracellular pH (pHi) after an acidification was ascertained, which is initiated if the NHE3 is capable of functioning, even under bicarbonate-free conditions. For this purpose, the pHi was determined using the pH-sensitive fluorescent dye BCECF (Calbiochem, the precursor BCECF-AM is employed). The cells (fibroblasts, LAP 1 cells) were initially loaded with BCECF. The BCECF fluorescence was determined in a “Ratio Fluorescence Spectrometer” (Photon Technology International, South Brunswick, N.J., USA) at excitation wavelengths of 505 and 440 nm and an emission wavelength of 535 nm and converted into the pHi using calibration curves. The cells were incubated in NH4Cl buffer (pH 7.4) (NH4Cl buffer: 115 mM NaCl, 20 mM NH4Cl, 5 mM KCl, 1 mM CaCl2, 1 mM MgSO4, 20 mM Hepes, 5 mM glucose, 1 mg/ml BSA; a pH of 7.4 is adjusted with 1 M NaOH) even during the BCECF loading. The intracellular acidification was induced by adding 975 μl of an NH4Cl-free buffer (see below) to 25 μl aliquots of the cells incubated in NH4Cl buffer. The subsequent rate of pH recovery was recorded for three minutes. To calculate the inhibitory potency of the tested substances, the cells were initially investigated in buffers with which a complete or absolutely no pH recovery took place. For complete pH recovery (100%), the cells were incubated in Na^+-containing buffer (133.8 mM NaCl, 4.7 mM KCl, 1.25 mM CaCl2, 1.25 mM MgCl2, 0.97 mM Na2HPO4, 0.23 mM NaH2PO4, 5 mM Hepes, 5 mM glucose, a pH of 7.0 is adjusted with 1 M NaOH). To determine the 0% value, the cells were incubated in an Na^+-free buffer (133.8 mM choline chloride, 4.7 mM KCl, 1.25 mM CaCl2, 1.25 mM MgCl2, 0.97 mM K2HPO4, 0.23 mM KH2PO4, 5 mM Hepes, 5 mM glucose, a pH of 7.0 is adjusted with 1 M KOH). The substances to be tested were made up in the Na^+-containing buffer. The recovery of the intracellular pH at each test concentration of a substance was expressed as a percentage of the maximum recovery. The IC50 value for the particular substance for the individual NHE subtypes was calculated from the pH recovery percentages using the Sigma-Plot program.

NHE3 = NHE3 (Oryctolagus cuniculus, UniProt P26432); conditions: literature, M. Donowitz et al. Am. J. Physiol. 276; cited from earlier work
NHE3, sequence (P26432 30-832): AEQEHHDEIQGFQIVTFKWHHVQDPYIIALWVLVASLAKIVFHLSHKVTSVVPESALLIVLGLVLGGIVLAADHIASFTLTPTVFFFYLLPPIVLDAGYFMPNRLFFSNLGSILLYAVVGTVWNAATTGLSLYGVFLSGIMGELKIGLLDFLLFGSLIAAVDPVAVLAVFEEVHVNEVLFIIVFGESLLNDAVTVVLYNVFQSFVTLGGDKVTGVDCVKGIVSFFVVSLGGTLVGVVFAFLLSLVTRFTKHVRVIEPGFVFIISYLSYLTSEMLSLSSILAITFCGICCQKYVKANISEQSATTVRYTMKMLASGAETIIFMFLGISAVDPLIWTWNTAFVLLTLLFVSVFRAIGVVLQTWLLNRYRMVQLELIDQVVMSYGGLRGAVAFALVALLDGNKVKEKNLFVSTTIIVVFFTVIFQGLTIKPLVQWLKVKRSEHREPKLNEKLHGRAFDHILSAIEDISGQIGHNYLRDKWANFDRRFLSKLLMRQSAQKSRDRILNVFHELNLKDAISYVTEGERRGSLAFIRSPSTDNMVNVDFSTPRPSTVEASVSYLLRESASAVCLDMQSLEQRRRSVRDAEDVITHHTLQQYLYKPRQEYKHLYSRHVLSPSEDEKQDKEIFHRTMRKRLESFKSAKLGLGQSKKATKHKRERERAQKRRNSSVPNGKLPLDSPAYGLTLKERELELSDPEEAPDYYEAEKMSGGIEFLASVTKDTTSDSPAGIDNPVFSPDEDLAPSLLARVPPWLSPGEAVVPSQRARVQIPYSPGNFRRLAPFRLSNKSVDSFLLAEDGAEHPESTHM

NHE2, sequence (P48763 whole entry): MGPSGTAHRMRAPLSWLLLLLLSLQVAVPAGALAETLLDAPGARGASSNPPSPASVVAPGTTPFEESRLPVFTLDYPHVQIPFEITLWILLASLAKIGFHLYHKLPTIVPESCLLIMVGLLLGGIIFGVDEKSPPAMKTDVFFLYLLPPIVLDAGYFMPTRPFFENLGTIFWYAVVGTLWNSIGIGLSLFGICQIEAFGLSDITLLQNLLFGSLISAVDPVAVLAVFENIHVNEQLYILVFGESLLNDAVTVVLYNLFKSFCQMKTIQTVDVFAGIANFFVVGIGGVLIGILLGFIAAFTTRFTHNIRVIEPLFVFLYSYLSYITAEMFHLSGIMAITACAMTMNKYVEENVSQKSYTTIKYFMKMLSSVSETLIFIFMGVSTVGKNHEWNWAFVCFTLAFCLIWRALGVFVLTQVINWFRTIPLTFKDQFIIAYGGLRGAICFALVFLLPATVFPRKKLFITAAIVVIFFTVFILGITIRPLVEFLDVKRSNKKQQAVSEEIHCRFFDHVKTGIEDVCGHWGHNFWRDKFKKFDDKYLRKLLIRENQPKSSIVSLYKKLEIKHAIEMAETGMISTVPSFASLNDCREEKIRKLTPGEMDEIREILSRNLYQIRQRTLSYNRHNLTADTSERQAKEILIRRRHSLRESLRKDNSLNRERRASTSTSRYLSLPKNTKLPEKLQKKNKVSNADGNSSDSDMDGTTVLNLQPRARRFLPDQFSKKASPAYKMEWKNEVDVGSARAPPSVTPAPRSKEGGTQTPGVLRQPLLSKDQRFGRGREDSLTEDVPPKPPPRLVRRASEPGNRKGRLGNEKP

IC50 (rNHE3) [µM] | SMILES | other results
0.84 | Cc1nc(Nc2c(Cl)cccc2Cl)[nH]c1C [Example 3, (2,6-Dichlorophenyl)(4,5-dimethyl-1H-imidazol-2-yl)amine hydrochloride] | –
0.24 | Clc1cccc(Cl)c1Nc1nc2c([nH]1)CCCC2 [Example 5, (2,6-Dichlorophenyl)(4,5,6,7-tetrahydro-1H-benzoimidazol-2-yl)amine hydrochloride] | –
98 | N#Cc1nc(Nc2c(Cl)cccc2Cl)[nH]c1C#N [Example 6, 2-(2,6-Dichlorophenylamino)-1H-imidazole-4,5-dicarbonitrile] | –
0.28 | CN(c1nc2c([nH]1)CCCC2)c1c(Cl)cccc1Cl [Example 7, hydrochloride] | –

Continued, compound first:

SMILES | IC50 (rNHE3) [µM] | other results
Clc1cccc(Cl)c1N=C1NCCN1 [Clonidine] | – | IC50 (NHE2): 42000 nM; affinity for the adrenergic α2 receptor (adrenergic α2 receptor): high affinity; affinity for the imidazoline I1 receptor (imidazoline I1 receptor): high affinity
Clc1cccc(Cl)c1Nc1ncc[nH]1 [Example 1, (2,6-Dichlorophenyl)(1H-imidazol-2-yl)amine hydrochloride] | 7.7 | –
Cc1c[nH]c(Nc2c(Cl)cccc2Cl)n1 [Example 2, (2,6-Dichlorophenyl)(4-methyl-1H-imidazol-2-yl)amine hydrochloride] | 1.7 | –
CC(C)[C@@H](CC[C@@H](C)[C@H]1CC[C@H]2[C@@H]3[C@H](O)C[C@H]4C[C@@H](NCCCNCCCCN)CC[C@]4(C)[C@H]3CC[C@]12C)OS(=O)(=O)O [Squalamine] | – | time to maximum strength of NHE3-inhibiting effect (NHE3): only after one hour
